Test results: article PMC5397484, “Gel-Based Purification and Biochemical Study of Laccase Isozymes from Ganoderma sp. and Its Role in Enhanced Cotton Callogenesis” (Frontiers in Microbiology, 2017)
Read-outs that look alike come from different tables or passages of the source. Blank lines part the entries; values can stand above or below the molecule they belong to.

Legend:
Experiment in all cases: absorbance […] nm, Eadie-Hofstee plot
Assay type in all cases: biochemical, Ganoderma lucidum
Glac L2 [1] = system: T1, Glac L2; details: citrate-phosphate pH 4.0 (methods; table title says optimal pH); 0.5-3.0 mM substrate; read-out: Guaiacol / Km
T1 construct: gene GL16398; native secreted isozyme, copper-induced culture, native-PAGE purified; 40-66 kDa range for all isozymes, described as multimeric; gene not assigned (GL tags are of another genome strain)

Glac L5 [2] = system: T2, Glac L5; details: citrate-phosphate pH 4.0 (methods; table title says optimal pH); 0.5-3.0 mM substrate; read-out: Guaiacol / Km
T2 construct: gene GL16398; native secreted isozyme, copper-induced culture, native-PAGE purified; 40-66 kDa range for all isozymes, described as multimeric; gene not assigned (GL tags are of another genome strain)

Glac L4 [3] = system: T3, Glac L4; details: citrate-phosphate pH 4.0 (methods; table title says optimal pH); 0.5-3.0 mM substrate; read-out: Guaiacol / Km
T3 construct: gene GL16398; native secreted isozyme, copper-induced culture, native-PAGE purified; 40-66 kDa range for all isozymes, described as multimeric; gene not assigned (GL tags are of another genome strain)

Glac L3 [4] = system: T4, Glac L3; details: citrate-phosphate pH 4.0 (methods; table title says optimal pH); 0.5-3.0 mM substrate; read-out: Guaiacol / Km
T4 construct: gene GL16398; native secreted isozyme, copper-induced culture, native-PAGE purified; 40-66 kDa range for all isozymes, described as multimeric; gene not assigned (GL tags are of another genome strain)

Glac L4 [5] = system: T3, Glac L4; details: citrate-phosphate pH 4.0 (methods; table title says optimal pH); 0.1-0.8 mM substrate; read-out: O-tolidine / Km
Glac L5 [6] = system: T2, Glac L5; details: citrate-phosphate pH 4.0 (methods; table title says optimal pH); 0.1-0.8 mM substrate; read-out: O-tolidine / Km
Glac L2 [7] = system: T1, Glac L2; details: citrate-phosphate pH 4.0 (methods; table title says optimal pH); 0.1-0.8 mM substrate; read-out: O-tolidine / Km
Glac L3 [8] = system: T4, Glac L3; details: citrate-phosphate pH 4.0 (methods; table title says optimal pH); 0.1-0.8 mM substrate; read-out: O-tolidine / Km
Glac L3 [9] = system: T4, Glac L3; details: 0.1 M sodium acetate pH 5.0 (methods; table title says optimal pH); 0.02-0.5 mM substrate; read-out: ABTS / Km
Glac L5 [10] = system: T2, Glac L5; details: 0.1 M sodium acetate pH 5.0 (methods; table title says optimal pH); 0.02-0.5 mM substrate; read-out: ABTS / Km
Glac L4 [11] = system: T3, Glac L4; details: 0.1 M sodium acetate pH 5.0 (methods; table title says optimal pH); 0.02-0.5 mM substrate; read-out: ABTS / Km
Glac L2 [12] = system: T1, Glac L2; details: 0.1 M sodium acetate pH 5.0 (methods; table title says optimal pH); 0.02-0.5 mM substrate; read-out: ABTS / Km

Km (Glac L2 [1]): 115 µM | Km (Glac L5 [2]): 126 µM | Km (Glac L4 [3]): 96 µM | Km (Glac L3 [4]): 80 µM
SMILES: COc1ccccc1O [guaiacol]

SMILES: Cc1cc(-c2ccc(N)c(C)c2)ccc1N [O-tolidine]
Km (Glac L4 [5]): 365 µM | Km (Glac L5 [6]): 78 µM | Km (Glac L2 [7]): 724 µM | Km (Glac L3 [8]): 507 µM

Km (Glac L3 [9]): 81 µM | Km (Glac L5 [10]): 15 µM | Km (Glac L4 [11]): 50 µM | Km (Glac L2 [12]): 83 µM
SMILES: CCn1c(=NN=c2sc3cc(S(=O)(=O)O)ccc3n2CC)sc2cc(S(=O)(=O)O)ccc21 [ABTS, 2,2′-azino-bis(3-ethylbenzothiazoline-6-sulfonic acid)]
